Data as given in patent publication US20100267731A1, “USE OF TRANSFORMING GROWTH FACTOR-B RECEPTOR INHIBITORS TO SUPPRESS OCULAR SCARRING” (Summa Health Systems, LLC, priority 2009, published 2010).

Columns and labels:
[1] = system: New Zealand white rabbits; test: Post surgery IOP in vivo; set-up: species or system New Zealand white rabbit; conditions: rabbit GFS, versus untreated eye
Description: IOP for the animals in groups A-D was measured with a TONO-PEN AVIA® (Reichert Ophthalmic Instruments, Depew, N.Y.) by gently touching the cornea of each subject after topical anesthesia was applied with 0.5% proparacaine. The IOP reading was omitted if its confidence interval was less than 95%. An average of three measurements was taken to deduce IOP.

[2] = system: New Zealand white rabbits; test: Hematoxylin and eosin staining ex vivo of eyes after GFS; format: in vivo; conditions: for infiltration of inflammatory cells and scarring in the subconjunctival space: H&E, five days after surgery
Description: Five days after surgery, the subjects in Groups A-D were euthanized with Fatal-plus™ (Vortech Pharmaceutical, Dearborn, Mich.) following the manufacturer's instructions. The subject's eyes were enucleated with palpebral margins to keep the conjunctiva epithelium and the subconjunctival space intact. Enucleated eyes were fixed with 10% buffered formalin and 5 μm thick paraffin sections were prepared. The sections were stained with hematoxylin and eosin (H&E) for histological examination, and images were captured using an Olympus DX51 light microscope and DP controller (Olympus, Tokyo, Japan).

[3] = system: subconjunctival tissue fibroblast outgrowth; test: Subconjunctival tissue fibroblast outgrowth assay ex vivo; format: cell-based, New Zealand white rabbit; conditions: for cell outgrowth length, explant from 180° control: 180° from the surgical site (180° control)
Description: Under an ophthalmic surgical microscope, subconjunctival tissues were dissected from the surgical site and 180 (6-o'clock position) from the surgical site (the 180° control). Each biopsy specimen (explant) was placed in a 25 cm^2 cell culture flask with complete media. […] The cell outgrowth, in mm, from the edge of each explant was observed, and the length of the outgrowth in 4 quadrants was measured.

[4] = system: cultured rabbit subconjunctival fibroblasts; test: Toxicity of ALK-5 inhibitors in vitro (cell count by hemocytometer); format: cell-based, New Zealand white rabbit; conditions: 10.0 of inhibitor pre-treated one hour, then 2 ng/ml TGF-β2 up to 48 hours
Description: Sample fibroblasts were obtained from New Zealand white rabbit eyes. The fibroblasts were derived from the subconjunctival tissues isolated from the eyes of the subjects. The cells were maintained in 25 cm^2 flask using 2 ml of medium composed of Eagle's minimal essential medium, 10% fetal bovine serum, 5% calf serum, essential and nonessential aminoacids, and antibiotics. When the cells reached confluence, they were trypsinized and passaged.
Three samples of the fibroblasts were prepared. The first sample, sample A, included fibroblast cultures treated with 2 ng/ml of TGF-β2 for up to 48 hours. The second sample, sample B, included fibroblast cultures that were untreated. The third sample included fibroblast cultures pre-treated with 2 ml of a medium including […] of ALK-5 inhibitor SB-505124 for one hour, and were additionally treated with additional 2 ng/ml of TGF-β2 (R&D Systems, Minneapolis, Minn.) for up to 48 hours.
The number of cells were counted using a hemocytometer (Hausser Scientific, Horsham, PC) after trypsinization. […] Therefore, in addition to inhibiting the expression of TGF-β2 and mitigating the ocular scarring that may result after GFS by using an ALK-5 type inhibitor, the ALK-5 inhibitor appears to have the added benefit of not destroying healthy cells around the surgical site that prevent post-surgery infection.

[5] = explants taken five days after GFS

SMILES | period IOP of treated eyes was lowered after GFS (in words) ([1]; MMC control) | infiltration of inflammatory cells and scarring in the subconjunctival space [2] | cell outgrowth length, explant from 180° control ([3]; over 18 days) | time IOP of treated eyes was lowered after GFS ([1]; SB-505124 tablet) | signs of tissue toxicity ([2]; rabbit, in vivo) | subconjunctival blood vessels ([2]; rabbit, in vivo) | cell number versus samples untreated or treated with TGF-β2 alone [4] | cell outgrowth from the edge of the subconjunctival tissue explant (qualitative) [3, 5] | difference in cell outgrowth versus untreated group [3, 5] | cell outgrowth length, explant from surgical site ([3]; surgical site, over 18 days)
CO[C@@]12[C@H](COC(N)=O)C3=C(C(=O)C(C)=C(N)C3=O)N1C[C@@H]1N[C@@H]12 [MMC, mitomycin C] | throughout the observation period | only a few inflammatory cells and mild scarring | approximately 7 mm |  |  |  |  |  |  | 
Cc1cccc(-c2[nH]c(C(C)(C)C)nc2-c2ccc3c(c2)OCO3)n1 [SB-505124] |  | only a few inflammatory cells and mild scarring | approximately 7 mm | up to 10 days | no or very low signs of tissue toxicity | seen | no measurable difference in cell number | robust | no significant difference | approximately 7 mm
